Results published in patent US11285127B2, “Compositions and methods for lowering triglycerides without raising LDL-C levels in a subject on concomitant statin therapy” (Amarin Pharmaceuticals Ireland Limited, priority 2013, dated 2022).

Columns and labels:
[1] = test system: patients with fasting triglyceride levels >200 mg/dl and <500 mg/dl despite statin therapy; assay: 12-week study: lipoprotein particle size (VLDL, LDL, HDL; nuclear magnetic resonance); assay type: in vivo, human; conditions: for LDL Particle Size, Week 12 EP Median (IQR): MITT; for LDL Particle Size, Percent change from Baseline, Median (IQR) / LDL Particle Size, Difference from placebo, Estimated median: Week 12, MITT; for LDL Particle Size, Difference from placebo, Estimated median: difference in percent change
From the text: (§1) Parameters (a)-(z) can be measured in accordance with any clinically acceptable methodology. For example, triglycerides, total cholesterol, HDL-C and fasting blood sugar can be sample from serum and analyzed using standard photometry techniques. VLDL-TG, LDL-C and VLDL-C can be calculated or determined using serum lipoprotein fractionation by preparative ultracentrifugation and subsequent quantitative analysis by refractometry or by analytic ultracentrifugal methodology. Apo A1, Apo B and hsCRP can be determined from serum using standard nephelometry techniques. Lipoprotein (a) can be determined from serum using standard turbidimetric immunoassay techniques. LDL particle number and particle size can be determined using nuclear magnetic resonance (NMR) spectrometry. Remnants lipoproteins and LDL-phospholipase A2 can be determined from EDTA plasma or serum and serum, respectively, using enzymatic immunoseparation techniques. Oxidized LDL, intercellular adhesion molecule-1 and interleukin-2 levels can be determined from serum using standard enzyme immunoassay techniques. These techniques are described in detail in standard textbooks, for example Tietz Fundamentals of Clinical Chemistry, 6th Ed. (Burtis, Ashwood and Borter Eds.), WB Saunders Company.
(§2) A multi-center, placebo-controlled, randomized, double-blind, 12-week study was performed to evaluate the efficacy and safety of >96% E-EPA in patients with fasting triglyceride levels >200 mg/dl and <500 mg/dl despite statin therapy (the mean of two qualifying entry values needed to be >185 mg/dl and at least one of the values needed to be >200 mg/dl). The primary objective of the study was to determine the efficacy of >96% E-EPA 2 g daily and 4 g daily, compared to placebo, in lowering fasting TG levels in patients with high risk for cardiovascular disease and with fasting TG levels 200 mg/dl and <500 mg/dl, despite treatment to LDL-C goal on statin therapy.
(§3) The secondary objectives of this study were the following: • 1. To determine the safety and tolerability of >96% E-EPA 2 g daily and 4 g daily; • 2. To determine the effect of >96% E-EPA on lipid and apolipoprotein profiles including total cholesterol (TC), non-high-density lipoprotein cholesterol (non-HDL-C), low density lipoprotein cholesterol (LDL-C), high density lipoprotein cholesterol (HDL-C), and […]; • 3. To determine the effect of >96% E-EPA on lipoprotein associated phospholipase A2 (Lp-PLA2) from baseline to week 12; • 4. To determine the effect of >96% E-EPA on low-density lipoprotein (LDL) particle number and size; • 5. To determine the effect of >96% E-EPA on oxidized LDL; • 6. To determine the effect of >96% E-EPA on fasting plasma glucose (FPG) and hemoglobin A1c (HbA1c); • 7. To determine the effect of >96% E-EPA on insulin resistance; • 8. To determine the effect of >96% E-EPA on high-sensitivity C-reactive protein (hsCRP); • 9. To determine the effects of >96% E-EPA 2 g daily and 4 g daily on the incorporation of fatty acids into red blood cell membranes and into plasma phospholipids; • 10. To explore the relationship between baseline fasting TG levels and the reduction in fasting TG levels; and • 11. To explore the relationship between changes of fatty acid concentrations in plasma and red blood cell membranes, and the reduction in fasting TG levels.
(§4) The primary efficacy variable for the double-blind treatment period was percent change in TG from baseline to Week 12 endpoint. […]

[2] = test system: patients with fasting triglyceride levels >200 mg/dl and <500 mg/dl despite statin therapy; assay: 12-week study: oxidized LDL; assay type: in vivo, human; conditions: MITT; for Oxidized LDL Percent change from Baseline Median (IQR): Week 12 endpoint; for Oxidized LDL Difference from placebo Estimated median: percent change from baseline to Week 12 endpoint
From the text: as §1, §2, §3, §4

[3] = 2 g/day E-EPA (n = 221), 12 weeks
[4] = 2 g/day E-EPA (n = 222), 12 weeks
[5] = 2 g/day, 12 weeks, Hodges-Lehmann median
[6] = 4 g/day E-EPA (n = 215), 12 weeks
[7] = 4 g/day E-EPA (n = 216), 12 weeks
[8] = 4 g/day, 12 weeks, Hodges-Lehmann median, listed as E-EPA
[9] = IPE 4 g/day (n = 215), 12 weeks
[10] = IPE 4 g/day (n = 216), 12 weeks
[11] = IPE 4 g/day vs placebo, 12 weeks, Hodges-Lehmann median

## CC/C=C\C/C=C\C/C=C\C/C=C\C/C=C\CCCC(=O)OCC [AMR101, ethyl eicosapentaenoate]
[1]; [3]
  LDL particle size, % Δ from baseline (median): +0.5%
  LDL particle size, End (median): 20.0 nm
[1]; [4]
  HDL particle size, % Δ from baseline (median): 0.0%
  HDL particle size, End (median): 8.6 nm
  VLDL particle size, % Δ from baseline (median): −5.0%
  VLDL particle size, End (median): 53.2 nm
[1]; [5]
  HDL particle size, Placebo-Adjusted Median Change from Baseline, 2 g/d: 0.0%
  LDL particle size, Placebo-Adjusted Median Change from Baseline, 2 g/d: +0.5%
  VLDL particle size, Placebo-Adjusted Median Change from Baseline, 2 g/d: −4.8%
[1]; [6]
  LDL particle size, % Δ from baseline (median): +0.5%
  LDL particle size, End (median): 20.0 nm
[1]; [7]
  HDL particle size, % Δ from baseline (median): −1.1%
  HDL particle size, End (median): 8.6 nm
  VLDL particle size, % Δ from baseline (median): −8.1%
  VLDL particle size, End (median): 51.2 nm
[1]; [8]
  HDL particle size, Placebo-Adjusted Median Change from Baseline, 4 g/d: −1.2%
  LDL particle size, Placebo-Adjusted Median Change from Baseline, 4 g/d: +0.5%
  VLDL particle size, Placebo-Adjusted Median Change from Baseline, 4 g/d: −7.7%
[1]; AMR101 2g/d + statin, n 221
  LDL Particle Size, Week 12 EP Median (IQR): 20.0 (0.6) nm
[1]; AMR101 2g/d + statin
  LDL Particle Size, Percent change from Baseline, Median (IQR): 0.5 (2.5) %
  LDL Particle Size, Difference from placebo, Estimated median: 0.5%
[1]; AMR101 4g/d + statin, n 215
  LDL Particle Size, Week 12 EP Median (IQR): 20.0 (0.6) nm
[1]; AMR101 4g/d + statin
  LDL Particle Size, Percent change from Baseline, Median (IQR): 0.5 (2.5) %
  LDL Particle Size, Difference from placebo, Estimated median: 0.5%
[1]; [9]
  LDL particle size, Change From Baseline, % (median): 0.5%
  LDL particle size, End of Treatment (median): 20.0 nm
[1]; [10]
  HDL particle size, Change From Baseline, % (median): −1.1%
  HDL particle size, End of Treatment (median): 8.6 nm
  VLDL particle size, Change From Baseline, % (median): −8.1%
  VLDL particle size, End of Treatment (median): 51.2 nm
[1]; [11]
  HDL particle size, Median Change From Baseline IPE 4 g/day vs Placebo, %: −1.2%
  LDL particle size, Median Change From Baseline IPE 4 g/day vs Placebo, %: 0.5%
  VLDL particle size, Median Change From Baseline IPE 4 g/day vs Placebo, %: −7.7%
[2]; AMR101 2 g/d + statin
  Oxidized LDL Week 12 EP Median (IQR): 55.8 (22.8) U/L
  Oxidized LDL Percent change from Baseline Median (IQR): 2.6 (18.3) %
  Oxidized LDL Difference from placebo Estimated median: −5.8%
[2]; AMR101 4 g/d + statin
  Oxidized LDL Week 12 EP Median (IQR): 51.4 (17.5) U/L
  Oxidized LDL Percent change from Baseline Median (IQR): −4.8 (19.6) %
  Oxidized LDL Difference from placebo Estimated median: −13.3%
